Measurements: paper PMC5063900, “A phase 1 study of the safety, tolerability, pharmacokinetics, and pharmacodynamics of TAK-063, a selective PDE10A inhibitor” (Psychopharmacology, 2016)

Assay: Treatment-emergent adverse events, phase 1 single-rising-dose study in healthy subjects
Type: in vivo, human
Experimental: Healthy Japanese and non-Japanese subjects between 18 and 55 years of age were recruited to participate in the study. Criteria for exclusion included prior treatment with any investigational compound within 30 days of the first TAK-063 dose, a positive test for drugs of abuse or nicotine, and an increased risk for suicide. […] Following a washout period of 7 days, subjects in cohort 3 (100 mg) received the same dose (100 mg) but under fed conditions.
The study assessed safety and tolerability in all subjects for the 4-day study duration. The primary endpoints were the percentage of subjects who experienced at least one treatment-emergent adverse event (TEAE), as well as the percentage of subjects who met predefined criteria for safety laboratory tests, vital sign measurements, and safety parameters following TAK-063 administration. The secondary endpoints were PK parameters for TAK-063 and M-I, assessing drug exposure at each dose, and the effect of food coadministration on TAK-063 PK. Exploratory endpoints included the effects of TAK-063 on domains of cognition as assessed by a computerized battery, CNS Vital Signs (CNSVS).
Adverse events, clinical laboratory tests, vital signs, 12-lead electrocardiograms (ECGs), and Columbia-Suicide Severity Rating Scale (C-SSRS) were all monitored. Intensity of AEs was classified as mild, moderate, or severe, and each AE was classified as to its relation to study drug.
Laboratory tests evaluated hematology, serum chemistry, urine, and hormone levels. Vital signs and ECGs were collected at screening, check-in, within 1 h predose, serially postdose, and at study exit, while the C-SSRS was administered at screening, check-in, and study exit. Any events reported on the C-SSRS and clinically significant laboratory abnormalities were reported as AEs.

[1] = Japanese subjects, TAK-063 Total (n = 30)
[2] = Japanese subjects, single 3 mg dose (n = 5)
[3] = Japanese subjects, single 10 mg dose (n = 5)
[4] = Japanese subjects, single 30 mg dose (n = 5)
[5] = Japanese subjects, single 100 mg dose (n = 5)
[6] = Japanese subjects, single 300 mg dose (n = 5)
[7] = Japanese subjects, single 1000 mg dose (n = 5)
[8] = all TAK-063-treated subjects, all cohorts
[9] = all subjects, TAK-063 Total (n = 66)
[10] = all subjects, single 3 mg dose (n = 11)
[11] = all subjects, single 10 mg dose (n = 11)
[12] = all subjects, single 30 mg dose (n = 11)

COc1cn(-c2ccc(-n3cccn3)cc2F)nc(-c2ccnn2-c2ccccc2)c1=O [TAK-063]
33.3%: Drug-related AE: somnolence, incidence [8]
4 (13.3) n (%): Adverse event: Orthostatic hypotension [1]
1(20.0) n (%): Adverse event: Vomiting [5]
2 (40.0) n (%): Adverse event: Somnolence [6] | Adverse event: Orthostatic hypotension [7]
1 (9.1) n (%): Adverse event: Dizziness [12] | Adverse event: Epistaxis [12] | Adverse event: Muscle tightness [12] | Adverse event: Orthostatic tachycardia [12]
19.7%: Drug-related AE: orthostatic tachycardia, incidence [8]
1(1.5) n (%): Adverse event: Dysarthria [9]
1 (20.0) n (%): Adverse event: Epistaxis [4] | Adverse event: Muscle tightness [4] | Adverse event: Orthostatic tachycardia [4] | Adverse event: Somnolence [4] | Adverse event: Headache [5] | Adverse event: Orthostatic hypotension [5] | Adverse event: Orthostatic hypotension [6] | Adverse event: Orthostatic tachycardia [6] | Adverse event: Dizziness [7] | Adverse event: Nausea [7] | Adverse event: Vomiting [7]
87.3%: AEs of mild intensity (55/63 AEs)
32 of 66: Subjects experiencing drug-related AEs (across all cohorts)
2 (3.0) n (%): Adverse event: Headache [9]
5 (16.7) n (%): Adverse event: Orthostatic tachycardia [1]
1 (1.5) n (%): Adverse event: Anxiety [9] | Adverse event: Blurred vision [9] | Adverse event: Epistaxis [9] | Adverse event: Hypotension [9] | Adverse event: Muscle tightness [9]
7 (10.6) n (%): Adverse event: Orthostatic hypotension [9]
57: Total number of drug-related AEs (across all cohorts)
43.3%: Total incidence of TEAEs (Japanese subjects treated with TAK-063)
10 (33.3) n (%): Adverse event: Somnolence [1]
22 (33.3) n (%): Adverse event: Somnolence [9]
1: Severe AE: orthostatic hypotension, number of subjects (300 mg)
10.6%: Drug-related AE: orthostatic hypotension, incidence [8]
0 n (%): Adverse event: Dizziness [2] | Adverse event: Epistaxis [2] | Adverse event: Headache [2] | Adverse event: Muscle tightness [2] | Adverse event: Nausea [2] | Adverse event: Orthostatic hypotension [2] | Adverse event: Orthostatic tachycardia [2] | Adverse event: Somnolence [2] | Adverse event: Vomiting [2] | Adverse event: Dizziness [3] | Adverse event: Epistaxis [3] | Adverse event: Headache [3] | Adverse event: Muscle tightness [3] | Adverse event: Nausea [3] | Adverse event: Orthostatic hypotension [3] | Adverse event: Orthostatic tachycardia [3] | Adverse event: Somnolence [3] | Adverse event: Vomiting [3] | Adverse event: Dizziness [4] | Adverse event: Headache [4] | Adverse event: Nausea [4] | Adverse event: Orthostatic hypotension [4] | Adverse event: Vomiting [4] | Adverse event: Dizziness [5] | Adverse event: Epistaxis [5] | Adverse event: Muscle tightness [5] | Adverse event: Nausea [5] | Adverse event: Orthostatic tachycardia [5] | Adverse event: Dizziness [6] | Adverse event: Epistaxis [6] | Adverse event: Headache [6] | Adverse event: Muscle tightness [6] | Adverse event: Nausea [6] | Adverse event: Vomiting [6] | Adverse event: Epistaxis [7] | Adverse event: Headache [7] | Adverse event: Muscle tightness [7] | Adverse event: Anxiety [10] | Adverse event: Blurred vision [10] | Adverse event: Dizziness [10] | Adverse event: Dysarthria [10] | Adverse event: Epistaxis [10] | Adverse event: Headache [10] | Adverse event: Hypotension [10] | Adverse event: Muscle tightness [10] | Adverse event: Nausea [10] | Adverse event: Orthostatic hypotension [10] | Adverse event: Somnolence [10] | Adverse event: Vomiting [10] | Adverse event: Anxiety [11] | Adverse event: Blurred vision [11] | Adverse event: Dizziness [11] | Adverse event: Dysarthria [11] | Adverse event: Epistaxis [11] | Adverse event: Headache [11] | Adverse event: Hypotension [11] | Adverse event: Muscle tightness [11] | Adverse event: Nausea [11] | Adverse event: Orthostatic hypotension [11] | Adverse event: Orthostatic tachycardia [11] | Adverse event: Somnolence [11] | Adverse event: Vomiting [11] | Adverse event: Anxiety [12] | Adverse event: Blurred vision [12] | Adverse event: Dysarthria [12] | Adverse event: Headache [12] | Adverse event: Hypotension [12] | Adverse event: Orthostatic hypotension [12]
2: Severe AE: somnolence, number of subjects (1000 mg)
3 (60.0) n (%): Adverse event: Orthostatic tachycardia [7] | Adverse event: Somnolence [7]
1 (3.3) n (%): Adverse event: Dizziness [1] | Adverse event: Epistaxis [1] | Adverse event: Headache [1] | Adverse event: Muscle tightness [1] | Adverse event: Nausea [1]
3 (4.5) n (%): Adverse event: Dizziness [9] | Adverse event: Nausea [9] | Adverse event: Vomiting [9]
13 (19.7) n (%): Adverse event: Orthostatic tachycardia [9]
2 (18.2) n (%): Adverse event: Orthostatic tachycardia [10] | Adverse event: Nausea [12]
4 (80.0) n (%): Adverse event: Somnolence [5]
2 (6.7) n (%): Adverse event: Vomiting [1]
